Laboratory results: patent US20080051387A1, “TETRAHYDROPYRIDO[3,4-D]PYRIMIDINES AND RELATED ANALOGUES” (priority 2006, published 2008)

Each compound was assayed against T1, chimeric human H3 receptor (Homo sapiens, UniProt Q9Y5N1) (assay: Chimeric human H3 receptor screening GTP binding assay (inhibition of histamine-stimulated GTP-gamma35S binding, Example 8)). Details: symbol ! in Ki; test compound 4 μM, 1 μM histamine; read-out: percent inhibition of agonist-induced GTP-gammaS binding to H3.
T1 construct: rat Galpha-i2 (Gnai2, rat); made in house; host or cells: Sf9 insect cells (baculovirus); P2 membranes
T1 sequence (Q9Y5N1 with tags, fused parts or gaps): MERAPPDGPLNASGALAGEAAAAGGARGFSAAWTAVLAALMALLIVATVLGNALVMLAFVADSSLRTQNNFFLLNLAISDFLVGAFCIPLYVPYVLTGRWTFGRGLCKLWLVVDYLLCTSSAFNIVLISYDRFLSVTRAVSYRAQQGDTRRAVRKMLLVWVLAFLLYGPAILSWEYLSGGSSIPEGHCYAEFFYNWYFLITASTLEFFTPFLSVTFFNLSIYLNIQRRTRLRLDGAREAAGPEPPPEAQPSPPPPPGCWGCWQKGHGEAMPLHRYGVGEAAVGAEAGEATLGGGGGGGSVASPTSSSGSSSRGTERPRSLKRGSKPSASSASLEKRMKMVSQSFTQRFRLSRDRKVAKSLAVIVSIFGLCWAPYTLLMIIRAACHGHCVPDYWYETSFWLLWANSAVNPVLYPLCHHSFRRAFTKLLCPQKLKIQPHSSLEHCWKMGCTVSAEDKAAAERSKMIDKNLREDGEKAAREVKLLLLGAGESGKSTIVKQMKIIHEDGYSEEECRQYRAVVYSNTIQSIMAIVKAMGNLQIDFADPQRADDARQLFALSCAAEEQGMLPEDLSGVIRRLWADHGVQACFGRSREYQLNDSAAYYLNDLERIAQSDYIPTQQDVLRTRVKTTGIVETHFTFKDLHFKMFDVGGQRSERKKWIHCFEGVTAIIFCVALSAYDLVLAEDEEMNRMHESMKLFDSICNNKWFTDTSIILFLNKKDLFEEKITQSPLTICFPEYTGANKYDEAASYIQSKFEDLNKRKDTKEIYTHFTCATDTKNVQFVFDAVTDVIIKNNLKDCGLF
Type: biochemical
Method in brief: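 Compound tested at 4 μM against 1 μM histamine stimulation; 125 pM GTP-gamma35S binding measured by filtration and scintillation after 60 min at room temperature. Membranes from Sf9 cells expressing chimeric human H3 plus G-protein subunits, in Tris pH 7.4/NaCl/MgCl2/GDP buffer; values are % inhibition after nonspecific subtraction.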
In the case of `Cc1ccc(CN2CCc3nc(N4CCN(C5CCC5)CC4)ncc3C2)cc1` [Compound 615, 2-(4-cyclobutylpiperazin-1-yl)-6-(4-methylbenzyl)-5,6,7,8-tetrahydropyrido[4,3-d]pyrimidine], the inhibition at 4 µM is reported as at least 90%.
Compound `Cn1ccnc1CN1CCc2nc(N3CCN(C4CCC4)CC3)ncc2C1` [Compound 616, 2-(4-cyclobutylpiperazin-1-yl)-6-[(1-methyl-1H-imidazol-2-yl)methyl]-5,6,7,8-tetrahydropyrido[4,3-d]pyrimidine] has an inhibition at 4 µM of at least 90%.
Work on `c1ccc2c(CN3CCc4nc(N5CCN(C6CCC6)CC5)ncc4C3)ccnc2c1` [Compound 617, 2-(4-cyclobutylpiperazin-1-yl)-6-(quinolin-4-ylmethyl)-5,6,7,8-tetrahydropyrido[4,3-d]pyrimidine] yielded an inhibition at 4 µM of at least 90%.
`c1ccc2ncc(CN3CCc4nc(N5CCN(C6CCC6)CC5)ncc4C3)cc2c1` [Compound 618, 2-(4-cyclobutylpiperazin-1-yl)-6-(quinolin-3-ylmethyl)-5,6,7,8-tetrahydropyrido[4,3-d]pyrimidine] gave an inhibition at 4 µM of at least 90%.
`Cc1cccc(CN2CCc3nc(N4CCN(C5CCC5)CC4)ncc3C2)n1` [Compound 619, 2-(4-cyclobutylpiperazin-1-yl)-6-[(6-methylpyridin-2-yl)methyl]-5,6,7,8-tetrahydropyrido[4,3-d]pyrimidine] gave an inhibition at 4 µM of at least 90%.
In the case of `c1cncc(CN2CCc3nc(N4CCN(C5CCC5)CC4)ncc3C2)c1` [Compound 620, 2-(4-cyclobutylpiperazin-1-yl)-6-(pyridin-3-ylmethyl)-5,6,7,8-tetrahydropyrido[4,3-d]pyrimidine], the inhibition at 4 µM is reported as at least 90%.
`c1cc(N2CCOCC2)ncc1CN1CCc2nc(N3CCN(C4CCC4)CC3)ncc2C1` [Compound 621, 2-(4-cyclobutylpiperazin-1-yl)-6-[(6-morpholin-4-ylpyridin-3-yl)methyl]-5,6,7,8-tetrahydropyrido[4,3-d]pyrimidine] was tested, and the inhibition at 4 µM was at least 90%.
With `Cc1cc(CN2CCc3nc(N4CCN(C5CCC5)CC4)ncc3C2)n(C)n1` [Compound 622, 2-(4-cyclobutylpiperazin-1-yl)-6-[(1,3-dimethyl-1H-pyrazol-5-yl)methyl]-5,6,7,8-tetrahydropyrido[4,3-d]pyrimidine] the inhibition at 4 µM was at least 90%.
`COc1ccccc1CN1CCc2nc(N3CCN(C4CCC4)CC3)ncc2C1` [Compound 623, 2-(4-cyclobutylpiperazin-1-yl)-6-(2-methoxybenzyl)-5,6,7,8-tetrahydropyrido[4,3-d]pyrimidine] gave an inhibition at 4 µM of at least 90%.
Compound `COc1ccc(CN2CCc3nc(N4CCN(C5CCC5)CC4)ncc3C2)c(OC)c1` [Compound 624, 2-(4-cyclobutylpiperazin-1-yl)-6-(2,4-dimethoxybenzyl)-5,6,7,8-tetrahydropyrido[4,3-d]pyrimidine] has an inhibition at 4 µM of at least 90%.
Compound `CC(C)c1ccc(CN2CCc3nc(N4CCN(C5CCC5)CC4)ncc3C2)cc1` [Compound 625, 2-(4-cyclobutylpiperazin-1-yl)-6-(4-isopropylbenzyl)-5,6,7,8-tetrahydropyrido[4,3-d]pyrimidine] has an inhibition at 4 µM of at least 90%.
`CC(C)CCN1CCc2nc(N3CCN(C4CCC4)CC3)ncc2C1` [Compound 626, 2-(4-cyclobutylpiperazin-1-yl)-6-(3-methylbutyl)-5,6,7,8-tetrahydropyrido[4,3-d]pyrimidine] showed an inhibition at 4 µM of at least 90%.
Compound `CCCN1CCc2nc(N3CCN(C4CCC4)CC3)ncc2C1` [Compound 627, 2-(4-cyclobutylpiperazin-1-yl)-6-propyl-5,6,7,8-tetrahydropyrido[4,3-d]pyrimidine] has an inhibition at 4 µM of at least 90%.
Work on `CCCCN1CCc2nc(N3CCN(C4CCC4)CC3)ncc2C1` [Compound 628, 6-butyl-2-(4-cyclobutylpiperazin-1-yl)-5,6,7,8-tetrahydropyrido[4,3-d]pyrimidine] yielded an inhibition at 4 µM of at least 90%.
`CCCCCN1CCc2nc(N3CCN(C4CCC4)CC3)ncc2C1` [Compound 629, 2-(4-cyclobutylpiperazin-1-yl)-6-pentyl-5,6,7,8-tetrahydropyrido[4,3-d]pyrimidine] gave an inhibition at 4 µM of at least 90%.
With `CCCCCCN1CCc2nc(N3CCN(C4CCC4)CC3)ncc2C1` [Compound 630, 2-(4-cyclobutylpiperazin-1-yl)-6-hexyl-5,6,7,8-tetrahydropyrido[4,3-d]pyrimidine] the inhibition at 4 µM was at least 90%.
`CC(C)CN1CCc2nc(N3CCN(C4CCC4)CC3)ncc2C1` [Compound 631, 2-(4-cyclobutylpiperazin-1-yl)-6-isobutyl-5,6,7,8-tetrahydropyrido[4,3-d]pyrimidine] gave an inhibition at 4 µM of at least 90%.
With `CCC(C)CN1CCc2nc(N3CCN(C4CCC4)CC3)ncc2C1` (stereo not drawn) [Compound 632, 2-(4-cyclobutylpiperazin-1-yl)-6-(2-methylbutyl)-5,6,7,8-tetrahydropyrido[4,3-d]pyrimidine] the inhibition at 4 µM was at least 90%.
For `CCC(CC)CN1CCc2nc(N3CCN(C4CCC4)CC3)ncc2C1` [Compound 633, 2-(4-cyclobutylpiperazin-1-yl)-6-(2-ethylbutyl)-5,6,7,8-tetrahydropyrido[4,3-d]pyrimidine], the inhibition at 4 µM was at least 90%.
In the case of `c1nc(N2CCN(C3CCC3)CC2)nc2c1CN(CC1CC1)CC2` [Compound 634, 2-(4-cyclobutylpiperazin-1-yl)-6-(cyclopropylmethyl)-5,6,7,8-tetrahydropyrido[4,3-d]pyrimidine], the inhibition at 4 µM is reported as at least 90%.
Work on `CCCC(C)CN1CCc2nc(N3CCN(C4CCC4)CC3)ncc2C1` (stereo not drawn) [Compound 635, 2-(4-cyclobutylpiperazin-1-yl)-6-(2-methylpentyl)-5,6,7,8-tetrahydropyrido[4,3-d]pyrimidine] yielded an inhibition at 4 µM of at least 90%.
`c1nc(N2CCN(C3CCC3)CC2)nc2c1CN(CC1CCOC1)CC2` (stereo not drawn) [Compound 636, 2-(4-cyclobutylpiperazin-1-yl)-6-(tetrahydrofuran-3-ylmethyl)-5,6,7,8-tetrahydropyrido[4,3-d]pyrimidine] was tested, and the inhibition at 4 µM was at least 90%.
In the case of `Cc1ccc(CN2CCc3nc(N4CCN(C5CCC5)CC4)ncc3C2)cc1C` [Compound 637, 2-(4-cyclobutylpiperazin-1-yl)-6-(3,4-dimethylbenzyl)-5,6,7,8-tetrahydropyrido[4,3-d]pyrimidine], the inhibition at 4 µM is reported as at least 90%.
`c1cc2c(cc1CN1CCc3nc(N4CCN(C5CCC5)CC4)ncc3C1)OCCO2` [Compound 638, 2-(4-cyclobutylpiperazin-1-yl)-6-(2,3-dihydro-1,4-benzodioxin-6-ylmethyl)-5,6,7,8-tetrahydropyrido[4,3-d]pyrimidine] showed an inhibition at 4 µM of at least 90%.
`c1ccc2nc(CN3CCc4nc(N5CCN(C6CCC6)CC5)ncc4C3)ccc2c1` [Compound 639, 2-(4-cyclobutylpiperazin-1-yl)-6-(quinolin-2-ylmethyl)-5,6,7,8-tetrahydropyrido[4,3-d]pyrimidine] was tested, and the inhibition at 4 µM was at least 90%.
Compound `COc1cccc(CN2CCc3nc(N4CCN(C5CCC5)CC4)ncc3C2)c1OC` [Compound 640, 2-(4-cyclobutylpiperazin-1-yl)-6-(2,3-dimethoxybenzyl)-5,6,7,8-tetrahydropyrido[4,3-d]pyrimidine] has an inhibition at 4 µM of at least 90%.
Work on `COc1ccc(OC)c(CN2CCc3nc(N4CCN(C5CCC5)CC4)ncc3C2)c1` [Compound 641, 2-(4-cyclobutylpiperazin-1-yl)-6-(2,5-dimethoxybenzyl)-5,6,7,8-tetrahydropyrido[4,3-d]pyrimidine] yielded an inhibition at 4 µM of at least 90%.
`CCn1cncc1CN1CCc2nc(N3CCN(C4CCC4)CC3)ncc2C1` [Compound 642, 2-(4-cyclobutylpiperazin-1-yl)-6-[(1-ethyl-1H-imidazol-5-yl)methyl]-5,6,7,8-tetrahydropyrido[4,3-d]pyrimidine] was tested, and the inhibition at 4 µM was at least 90%.
In the case of `c1cc(N2CCCC2)ncc1CN1CCc2nc(N3CCN(C4CCC4)CC3)ncc2C1` [Compound 643, 2-(4-cyclobutylpiperazin-1-yl)-6-[(6-pyrrolidin-1-ylpyridin-3-yl)methyl]-5,6,7,8-tetrahydropyrido[4,3-d]pyrimidine], the inhibition at 4 µM is reported as at least 90%.
`Cc1c(F)cccc1CN1CCc2nc(N3CCN(C4CCC4)CC3)ncc2C1` [Compound 644, 2-(4-cyclobutylpiperazin-1-yl)-6-(3-fluoro-2-methylbenzyl)-5,6,7,8-tetrahydropyrido[4,3-d]pyrimidine] gave an inhibition at 4 µM of at least 90%.
Work on `Clc1ccccc1CN1CCc2nc(N3CCN(C4CCC4)CC3)ncc2C1` [Compound 645, 6-(2-chlorobenzyl)-2-(4-cyclobutylpiperazin-1-yl)-5,6,7,8-tetrahydropyrido[4,3-d]pyrimidine] yielded an inhibition at 4 µM of at least 90%.
For `Clc1ccc(CN2CCc3nc(N4CCN(C5CCC5)CC4)ncc3C2)c(Cl)c1` [Compound 646, 2-(4-cyclobutylpiperazin-1-yl)-6-(2,4-dichlorobenzyl)-5,6,7,8-tetrahydropyrido[4,3-d]pyrimidine], the inhibition at 4 µM was at least 90%.
Compound `c1cc(N2CCCC2)ccc1CN1CCc2nc(N3CCN(C4CCC4)CC3)ncc2C1` [Compound 647, 2-(4-cyclobutylpiperazin-1-yl)-6-(4-pyrrolidin-1-ylbenzyl)-5,6,7,8-tetrahydropyrido[4,3-d]pyrimidine] has an inhibition at 4 µM of at least 90%.
